Experimental data as given in patent publication US20060189591A1, “Five-membered heterocyclic derivative” (DAIICHI PHARMACEUTICAL CO., LTD., priority 2003, published 2006).
Structures can show the parent of a compound that is named as a salt. Where two headings read alike, the source gives them in different places. Values belong to the molecule of their own block, whether it stands above or below them.

What was measured:
[1] = test system: collagen-induced platelet aggregation; details: cited from earlier work
[2] = test system: collagen-induced platelet aggregation; experiment: Inhibitory activity for platelet aggregation (collagen-induced, human platelet rich plasma); type: cell-based; details: human PRP, read-out: Inhibition of collagen-induced platelet aggregation, IC50
Experimental: Inhibitory Activity for Platelet Aggregation
Human blood was collected in the presence of 3.13% sodium citrate as an anticoagulant in a volume 1/10 the blood volume. The collected blood was centrifuged at 180×g for 10 minutes so as to separate the upper layer; i.e., platelet rich plasma (PRP) from the blood. The remaining lower layer was further centrifuged at 1,600×g for 10 minutes, and platelet poor plasma ([…]); i.e., the thus-obtained upper layer, was collected. A solution (1 μL) of the compound of the Examples was added to PRP (200 μL), and the mixture was allowed to stand at 37° C. for 2 minutes. Subsequently, collagen (2 μL) was added to the resultant mixture so as to induce platelet aggregation. Percentage of platelet aggregation was measured using PAM-12C (SSR Engineering). Optical transmittance of PPP was employed as the value reflecting the state in which 100% aggregation occurred. Percent of platelet aggregation values of PRP were determined at a series of concentrations of each Example compound and IC50 of each compound was calculated.

Cyclooxygenase-1 (COX-1) = biological target: T1, Cyclooxygenase-1 (COX-1) (Ovis aries, UniProt P05979); experiment: COX Inhibitor Screening Assay Kit, COX-1; type: biochemical; details: 50 μM compound; read-out: Inhibitory effect against COX-1 at 50 μM (% inhibition)
T1 construct: purchased Cayman Chemical Company 560101
T1 sequence (P05979 25-600): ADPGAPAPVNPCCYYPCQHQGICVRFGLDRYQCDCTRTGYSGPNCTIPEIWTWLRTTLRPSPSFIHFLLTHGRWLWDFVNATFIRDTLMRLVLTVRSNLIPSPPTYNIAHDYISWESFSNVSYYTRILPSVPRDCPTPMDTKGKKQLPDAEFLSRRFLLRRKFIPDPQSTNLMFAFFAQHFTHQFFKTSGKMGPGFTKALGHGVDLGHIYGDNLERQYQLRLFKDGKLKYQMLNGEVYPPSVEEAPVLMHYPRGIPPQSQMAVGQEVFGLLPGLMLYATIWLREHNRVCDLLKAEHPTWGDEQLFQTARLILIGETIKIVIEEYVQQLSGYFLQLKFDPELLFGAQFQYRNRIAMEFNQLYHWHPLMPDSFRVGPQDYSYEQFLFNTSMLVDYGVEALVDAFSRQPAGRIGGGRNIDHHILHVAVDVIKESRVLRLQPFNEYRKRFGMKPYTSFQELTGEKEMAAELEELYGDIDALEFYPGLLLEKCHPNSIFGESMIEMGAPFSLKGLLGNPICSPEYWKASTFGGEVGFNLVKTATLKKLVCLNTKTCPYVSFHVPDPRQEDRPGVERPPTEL
Experimental: (§1) Inhibitory Effects on Cyclooxygenase-1 (COX-1) and Cyclooxygenase-2 (COX-2)
(§2) Inhibitory activity against COX-1 and COX-2 of the compounds produced in the Examples was measured by use of a COX Inhibitor Screening Assay Kit (product of Cayman Chemical Company, Catalog Nos. 560101 and 560121).
(§3) Before starting the measurement, reaction buffer, heme, arachidonic acid, SnCl2, EIA buffer, washing buffer, prostaglandin (PG) screening EIA standard, PG screening acetylcholine esterase (AchE), tracer (chromogenic enzyme […] conjugate), and PG screening EIA antiserum were prepared ready for use.
(§4) (1) Production of PGF2α in the presence of COX-1 or COX-2
(§5) A reaction mixture containing the compound of the Examples (50 μM) and COX-1 or COX-2 was allowed to stand at 37° C. for 10 minutes. Arachidonic acid ([…]) was added thereto, and the resultant mixture was further allowed to stand at 37° C. for 2 minutes. 1N-Hydrochloric acid (50 μL) was added to the reaction mixture, to thereby stop the reaction. SnCl2 solution (100 μL) was added thereto, and the resultant mixture was allowed to stand at room temperature for 5 minutes.
(§6) (2) Quantitative Determination of PGF2α using ELISA
(§7) Antiserum (rabbit anti-PGF2α antibody, 50 μL) was added to the wells of 96 well plate that had been coated with mouse anti-rabbit IgG. A solution of PGF2α-containing mixture obtained above (2000-fold diluted, 50 μL) and AchE tracer (50 μL) were added to the well in this order, and the mixture was allowed to stand at room temperature for 18 hours. The wells were washed 5 times with the washing buffer to remove an excessive AchE tracer, and Ellman reagent (200 μL) was added. After leaving the plate in a dark room for 60 minutes, absorbance was measured at 405 nm.
(§8) (3) Calculation of Inhibitory Activity of the Compound of the Examples
(§9) A calibration curve was obtained by use of the PG screening EIA standard, and the production amount of PGF2α was determined from the absorbance above. Percent inhibition against COX-1 or COX-2 at 50 μM of the compound of the Examples was calculated.

Cyclooxygenase-2 (COX-2) = biological target: T2, Cyclooxygenase-2 (COX-2) (Homo sapiens, UniProt P35354); experiment: COX Inhibitor Screening Assay Kit, COX-2; type: biochemical; details: 50 μM compound; read-out: Inhibitory effect against COX-2 at 50 μM (% inhibition)
T2 construct: purchased Cayman Chemical Company 560121
T2 sequence (P35354 18-604): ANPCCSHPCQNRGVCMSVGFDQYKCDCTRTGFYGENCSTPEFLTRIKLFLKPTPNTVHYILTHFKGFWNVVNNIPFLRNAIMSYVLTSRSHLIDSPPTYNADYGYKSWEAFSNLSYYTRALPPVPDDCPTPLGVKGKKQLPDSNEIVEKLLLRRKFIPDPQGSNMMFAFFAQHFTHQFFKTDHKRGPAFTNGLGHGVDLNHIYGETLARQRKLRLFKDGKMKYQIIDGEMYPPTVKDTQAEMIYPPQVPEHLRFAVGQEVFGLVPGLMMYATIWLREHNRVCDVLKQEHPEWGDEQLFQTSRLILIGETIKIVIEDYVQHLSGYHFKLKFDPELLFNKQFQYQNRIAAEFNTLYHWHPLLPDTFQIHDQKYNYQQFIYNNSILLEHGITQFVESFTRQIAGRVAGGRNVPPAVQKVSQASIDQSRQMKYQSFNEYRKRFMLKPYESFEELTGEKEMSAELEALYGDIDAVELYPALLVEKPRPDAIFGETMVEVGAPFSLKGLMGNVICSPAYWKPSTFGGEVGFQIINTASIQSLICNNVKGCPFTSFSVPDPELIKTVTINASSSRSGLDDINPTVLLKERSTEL
Experimental: as §1, §2, §3, §4, §5, §6, §7, §8, §9

COX = details: background art; cited from earlier work

SMILES: CS(=O)(=O)c1ccc(-c2cc(C#N)nn2-c2ccc(F)cc2)cc1 [Compound (A)]
IC50 ([1]; prior-art compound, background art, read-out: IC50 value against collagen-induced platelet aggregation): 5300 nM

SMILES: COc1ccc(-c2nc(C(=O)N3CCN(C)CC3)cn2-c2ccc(F)cc2)cn1 [Example 6, 1-[1-(4-Fluorophenyl)-2-(6-methoxy-3-pyridyl)-1H-imidazole-4-carbonyl]-4-methylpiperazine]
IC50 [2]: 330 nM
inhibition at 50 µM (Cyclooxygenase-1 (COX-1)): 28.4%
inhibition at 50 µM (Cyclooxygenase-2 (COX-2)): 23.4%

SMILES: CN1CCN(C(=O)c2nc(-c3ccccc3)c(-c3ccccc3)o2)CC1 [Example 25, 1-(4,5-diphenyloxazole-2-carbonyl)-4-methylpiperazine]
IC50 [2]: 710 nM
inhibition at 50 µM (Cyclooxygenase-1 (COX-1)): 3.1%
inhibition at 50 µM (Cyclooxygenase-2 (COX-2)): -8.7%

SMILES: Cc1ccc(-n2cc(C(=O)N3CCN(C)C(=O)C3)nc2-c2ccc(C)nc2)cc1 [Example 32, 1-[1-(4-Methylphenyl)-2-(6-methyl-3-pyridyl)-1H-imidazole-4-carbonyl]-4-methyl-3-oxopiperazine]
IC50 [2]: 410 nM
inhibition at 50 µM (Cyclooxygenase-1 (COX-1)): 5.6%
inhibition at 50 µM (Cyclooxygenase-2 (COX-2)): -2.2%

SMILES: COc1ccc(-n2nc(C(=O)N3CCN(C)CC3)nc2-c2ccc(C)cc2)cn1 [Example 37, 1-[1-(6-Methoxy-3-pyridyl)-5-(4-methylphenyl)-1H-1,2,4-triazole-3-carbonyl]-4-methylpiperazine hydrochloride]
IC50 [2]: 270 nM
inhibition at 50 µM (Cyclooxygenase-1 (COX-1)): -3.2%
inhibition at 50 µM (Cyclooxygenase-2 (COX-2)): -0.8%

SMILES: COc1ccc(-c2nc(C(=O)N3CCN(C)CC3)nn2-c2ccc(C)cc2)cn1 [Example 38, 1-[5-(6-Methoxy-3-pyridyl)-1-(4-methylphenyl)-1H-1,2,4-triazole-3-carbonyl]-4-methylpiperazine hydrochloride]
IC50 [2]: 320 nM
inhibition at 50 µM (Cyclooxygenase-1 (COX-1)): 3.5%
inhibition at 50 µM (Cyclooxygenase-2 (COX-2)): 10.7%

SMILES: COc1ccc(-c2nc(C(=O)N3CCC(F)(F)CC3)cn2-c2ccccn2)cn1 [Example 63, 1-[2-(6-Methoxy-3-pyridyl)-1-(2-pyridyl)-1H-imidazole-4-carbonyl]-4,4-difluoropiperidine]
IC50 [2]: 20 nM
inhibition at 50 µM (Cyclooxygenase-1 (COX-1)): 3.4%
inhibition at 50 µM (Cyclooxygenase-2 (COX-2)): 7.5%

SMILES: COc1ccc(-c2nc(C(=O)N3CCC(F)CC3)cn2-c2ccccn2)cn1 [Example 64, 1-[2-(6-Methoxy-3-pyridyl)-1-(2-pyridyl)-1H-imidazole-4-carbonyl]-4-fluoropiperidine]
IC50 [2]: 60 nM
inhibition at 50 µM (Cyclooxygenase-1 (COX-1)): -1.4%
inhibition at 50 µM (Cyclooxygenase-2 (COX-2)): 4.5%

IC50 [2]: 120 nM
SMILES: COc1ccc(-c2nc(C(=O)N3CCC(OC)CC3)cn2-c2ccccn2)cn1 [Example 65, 1-[2-(6-Methoxy-3-pyridyl)-1-(2-pyridyl)-1H-imidazole-4-carbonyl]-4-methoxypiperidine]

IC50 [2]: 700 nM
SMILES: COc1ccc(-n2nc(C(=O)N3CCN(C)CC3)nc2-c2ccccn2)cn1 [Example 66, 1-[1-(6-Methoxy-3-pyridyl)-5-(2-pyridyl)-1H-1,2,4-triazole-3-carbonyl]-4-methylpiperazine]

IC50 [2]: 220 nM
SMILES: COc1ccc(-n2nc(C(=O)N3CCC(F)(F)CC3)nc2-c2ccc(C#N)cn2)cn1 [Example 67, 1-[5-(5-Cyano-2-pyridyl)-1-(6-methoxy-3-pyridyl)-1H-1,2,4-triazole-3-carbonyl]-4,4-difluoropiperidine]

SMILES: COc1ccc(-n2nc(C(=O)N3CCC(F)(F)CC3)nc2-c2ccc(F)cn2)cn1 [Example 71, 1-[5-(5-Fluoro-2-pyridyl)-1-(6-methoxy-3-pyridyl)-1H-1,2,4-triazole-3-carbonyl]-4,4-difluoropiperidine]
IC50 [2]: 190 nM
inhibition at 50 µM (Cyclooxygenase-1 (COX-1)): 35.2%

SMILES: COc1ccc(-c2nc(C(=O)N3CCC[C@@H](F)C3)cn2-c2ccccn2)cn1 [Example 72, (3R)-1-[2-(6-Methoxy-3-pyridyl)-1-(2-pyridyl)-1H-imidazole-4-carbonyl]-3-fluoropiperidine]
IC50 [2]: 110 nM
inhibition at 50 µM (Cyclooxygenase-1 (COX-1)): 39%

SMILES: COc1ccc(-n2nc(C(=O)N3CCC(F)(F)CC3)nc2-c2ccc(C)cn2)cn1 [Example 74, 1-[1-(6-Methoxy-3-pyridyl)-5-(5-methyl-2-pyridyl)-1H-1,2,4-triazole-3-carbonyl]-4,4-difluoropiperidine]
IC50 [2]: 21 nM
inhibition at 50 µM (Cyclooxygenase-1 (COX-1)): 46.9%

SMILES: COc1ccc(-c2cc(C(F)F)nn2-c2ccc(S(N)(=O)=O)cc2)cc1F [compound (B)]
platelet aggregation inhibitory activity ([1]; compared with inhibitory activity against COX-2): not so strong compared with its inhibitory activity against COX-2

SMILES: COc1ccc(-c2nc(C(=O)N3CCN(C)CC3)sc2-c2ccc(OC)cc2)cc1 [thiazole derivative (C)]
COX inhibiting effect (COX): inhibits COX
